Measurements taken from US20240251790A1 (priority 2021, published 2024).
Values joined by “and” are separate entries in the source; they are usually repeats but may differ in a detail not shown here. Equal entries are not always repeated. Where two headings read alike, the source gives them in different places.

Legend:
[1] = tested on: total microbial count (APC); assay type: cell-based
[2] = tested on: barley; experiment: Germination of treated barley kernels (percentage of living kernels); assay type: in vivo; settings: 500 ppm PAA
Method: The grains treated with PAA as described in Example 4 were further tested for germination. After the treatment, the PAA solution was decanted and kernels were immediately transferred into Petri dishes and placed between two wet paper towels for germination tests. The treated kernels were not washed with water. The germination continued in a water bath at room temperature for 2 days. Germination was evaluated by the percentage of living kernels in a sample of barley.

[3] = tested on: Fusarium graminearum 46779; assay type: cell-based
[4] = tested on: coliforms (ECC); assay type: cell-based; settings: 500 ppm PAA
[5] = germinated barley treated before kilning, 500 ppm PAA, pH = 3, 30 s, testing after germination
[6] = germinated barley treated before kilning, 500 ppm PAA, pH = 3, 30 s, testing after kilning
[7] = germinated barley treated before kilning, 500 ppm PAA, pH = 9, 30 s, testing after germination
[8] = germinated barley treated before kilning, 500 ppm PAA, pH = 9, 30 s, testing after kilning
[9] = germinated barley, 500 ppm PAA, pH = 3.1, 30 seconds
[10] = germinated barley, 500 ppm PAA, pH = 9.0, 30 seconds
[11] = steeped barley, 500 ppm PAA, pH = 3.1 (unadjusted), 30 seconds, 20° C.
[12] = steeped barley, 500 ppm PAA, pH = 6.5, 5 s
[13] = steeped barley, 500 ppm PAA, pH = 6.5, 30 s
[14] = steeped barley, 500 ppm PAA, pH = 9, 5 s
[15] = steeped barley, 500 ppm PAA, pH = 9, 30 s
[16] = steeped barley, 500 ppm PAA, pH = 9.0, 30 seconds, 20° C.
[17] = steeped barley, 500 ppm PAA, pH = 9, 10 min
[18] = steeped barley, 500 ppm PAA, pH = 10.0, 5 s
[19] = steeped barley, 500 ppm PAA, pH = 10.0, 30 s
[20] = steeped barley, 500 ppm PAA, unadjusted (pH=3.1), 5 s
[21] = steeped barley, 500 ppm PAA, unadjusted (pH=3.1), 30 s
[22] = test on day 2, treated once, day 2 (after steeping), 500 ppm PAA, 2:1, 10 minutes, 20° C.
[23] = test on day 4, treated once, day 2, 500 ppm PAA, 10 minutes
[24] = test on day 4, treated twice, days 2 and 4, 500 ppm PAA, 10 min each
[25] = germinated barley treated before kilning, pH = 3, 30 s, testing after germination
[26] = germinated barley treated before kilning, pH = 3, 30 s, testing after kilning, * = complete kill
[27] = germinated barley treated before kilning, pH = 9, 30 s, testing after germination
[28] = germinated barley treated before kilning, pH = 9, 30 s, testing after kilning, * = complete kill
[29] = germinated barley, pH = 3.1, 30 seconds
[30] = germinated barley, pH = 9.0, 30 seconds

Structure (SMILES): CC(=O)OO [PAA, peracetic acid]
- APC Log10 [1, 5]: 7.22 Log10
- APC Log10 Reduction [1, 5]: 1.47 Log10
- APC Log10 [1, 6]: 3.78 Log10
- APC Log10 Reduction [1, 6]: 2.59 Log10
- APC Log10 [1, 7]: 7.86 Log10
- APC Log10 Reduction [1, 7]: 0.83 Log10
- APC Log10 [1, 8]: 5.14 Log10
- APC Log10 Reduction [1, 8]: 1.23 Log10
- APC Log10 (CFU/10 g barley grains) [1, 9]: 7.23 Log10
- APC Log10 Reduction [1, 9]: 1.98 Log10
- APC Log10 (CFU/10 g barley grains) [1, 10]: 8.01 Log10
- APC Log10 Reduction [1, 10]: 1.20 Log10
- APC Log10 (CFU/10 g barley grains) [1, 11]: 6.99 Log10
- APC Log10 Reduction [1, 11]: 2.16 Log10
- APC Log10 [1, 12]: 7.34 Log10
- APC Log10 Reduction [1, 12]: 1.73 Log10
- APC Log10 [1, 13]: 6.51 Log10
- APC Log10 Reduction [1, 13]: 2.56 Log10
- APC Log10 [1, 14]: 7.97 Log10
- APC Log10 Reduction [1, 14]: 0.51 Log10
- APC Log10 [1, 15]: 6.72 Log10
- APC Log10 Reduction [1, 15]: 1.75 Log10
- APC Log10 (CFU/10 g barley grains) [1, 16]: 7.34 Log10
- APC Log10 Reduction [1, 16]: 1.81 Log10
- APC Log10 [1, 17]: 6.25 Log10
- APC Log10 Reduction [1, 17]: 2.23 Log10
- APC Log10 [1, 18]: 8.28 Log10
- APC Log10 Reduction [1, 18]: 0.79 Log10
- APC Log10 [1, 19]: 7.35 Log10
- APC Log10 Reduction [1, 19]: 1.72 Log10
- APC Log10 [1, 20]: 8.19 Log10
- APC Log10 Reduction [1, 20]: 0.29 Log10
- APC Log10 [1, 21]: 6.54 Log10
- APC Log10 Reduction [1, 21]: 1.93 Log10
- APC Log10 [1, 22]: 3.84 Log10
- APC Log10 Reduction [1, 22]: 4.30 Log10
- APC Log10 [1, 23]: 6.72 Log10
- APC Log10 Reduction [1, 23]: 2.5 Log10 and 2.52 Log10
- APC Log10 [1, 24]: 5.78 Log10
- APC Log10 Reduction [1, 24]: 3.46 Log10
- Germination ([2]; pH 3.1, 30 s, germination 2 days): 100%
- Germination ([2]; pH 3.1, 5 min, germination 2 days): 100%
- Germination ([2]; pH 3.1, 10 min, germination 2 days): 94%
- Germination ([2]; pH 3.1, 30 min, germination 2 days): 73%
- Germination ([2]; pH 9.0, 30 s, germination 2 days): 100%
- Germination ([2]; pH 9.0, 5 min, germination 2 days): 100%
- Germination ([2]; pH 9.0, 10 min, germination 2 days): 100%
- Germination ([2]; pH 9.0, 30 min, germination 2 days): 99%
- Germination ([2]; pH 9.0, longer treatment times (10 min and 30 min)): ~100%
- effect on germination ([2]; short treatment times (0.5-5 min)): practically did not affect the germination
- effect on germination ([2]; unadjusted (acidic) solution, longer treatment times (10 min and especially 30 min)): suppressed germination
- kill of Fusarium [3]: complete kill
- ECC Log10 [4, 25]: 6.59 Log10
- ECC Log10 Reduction [4, 25]: 1.67 Log10
- ECC Log10 [4, 26]: 0.00* Log10
- ECC Log10 Reduction [4, 26]: 3.25* Log10
- ECC Log10 [4, 27]: 6.68 Log10
- ECC Log10 Reduction [4, 27]: 1.58 Log10
- ECC Log10 [4, 28]: 0.00* Log10
- ECC Log10 Reduction [4, 28]: 3.25* Log10
- ECC Log10 (CFU/10 g barley grains) [4, 29]: 6.83 Log10
- ECC Log10 Reduction [4, 29]: 1.16 Log10
- ECC Log10 (CFU/10 g barley grains) [4, 30]: 7.39 Log10
- ECC Log10 Reduction [4, 30]: 0.60 Log10
- ECC Log10 (CFU/10 g barley grains) ([4]; steeped barley, pH = 3.1 (unadjusted), 30 seconds, 20° C.): 5.99 Log10
